Measurements published in patent US9765037B2, “Compositions and methods for treating toxoplasmosis, cryptosporidiosis, and other apicomplexan protozoan related diseases” (University of Washington Through its Center for …, priority 2010, dated 2017).
In brackets after ≈: the same amount, converted by molar mass. Where two headings read alike, the source gives them in different places.

Key:
[1] = Solubility in buffers of various pH; type: physicochemical; conditions: pH 6.5, aqueous buffer, read-out: Experimental Solubility pH 6.5
[2] = system: human lymphocyte (CRL8155); assay: Growth inhibition of human cell line CRL8155
PfCDPK1 = PfCDPK1 (Plasmodium falciparum (isolate 3D7), UniProt P62344); assay: biochemical
PfCDPK4 = PfCDPK4 (Plasmodium falciparum (isolate 3D7), UniProt Q8IBS5); assay: biochemical
[3] = system: human promyelocytic leukemia (HL-60); assay: Growth inhibition of human cell line HL-60
[4] = Blood levels after oral gavage dosing of mice (LC-MS); conditions: mouse, in vivo, po
TgCDPK1 = TgCDPK1 (Toxoplasma gondii, UniProt Q9BJF5); type: biochemical; conditions: read-out: IC50 (μM) TgCDPK1
TgCDPK1, sequence (Q9BJF5 1-507): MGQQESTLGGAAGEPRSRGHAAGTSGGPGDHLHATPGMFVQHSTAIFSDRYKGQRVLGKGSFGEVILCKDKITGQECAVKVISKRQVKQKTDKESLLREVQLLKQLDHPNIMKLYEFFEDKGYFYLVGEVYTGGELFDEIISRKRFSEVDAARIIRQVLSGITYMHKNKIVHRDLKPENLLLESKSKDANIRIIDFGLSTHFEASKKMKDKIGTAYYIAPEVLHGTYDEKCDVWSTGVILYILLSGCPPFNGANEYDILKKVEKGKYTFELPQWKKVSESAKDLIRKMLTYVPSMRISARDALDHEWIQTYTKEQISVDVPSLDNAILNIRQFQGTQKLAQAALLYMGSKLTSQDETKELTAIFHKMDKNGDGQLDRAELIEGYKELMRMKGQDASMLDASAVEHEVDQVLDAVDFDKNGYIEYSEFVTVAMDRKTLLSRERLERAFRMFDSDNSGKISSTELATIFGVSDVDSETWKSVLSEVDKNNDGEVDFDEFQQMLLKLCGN

CpCDPK1 = CpCDPK1 (Cryptosporidium parvum (strain Iowa II), UniProt A3FQ16); assay: biochemical; type: biochemical
CpCDPK1, sequence (A3FQ16 1-538): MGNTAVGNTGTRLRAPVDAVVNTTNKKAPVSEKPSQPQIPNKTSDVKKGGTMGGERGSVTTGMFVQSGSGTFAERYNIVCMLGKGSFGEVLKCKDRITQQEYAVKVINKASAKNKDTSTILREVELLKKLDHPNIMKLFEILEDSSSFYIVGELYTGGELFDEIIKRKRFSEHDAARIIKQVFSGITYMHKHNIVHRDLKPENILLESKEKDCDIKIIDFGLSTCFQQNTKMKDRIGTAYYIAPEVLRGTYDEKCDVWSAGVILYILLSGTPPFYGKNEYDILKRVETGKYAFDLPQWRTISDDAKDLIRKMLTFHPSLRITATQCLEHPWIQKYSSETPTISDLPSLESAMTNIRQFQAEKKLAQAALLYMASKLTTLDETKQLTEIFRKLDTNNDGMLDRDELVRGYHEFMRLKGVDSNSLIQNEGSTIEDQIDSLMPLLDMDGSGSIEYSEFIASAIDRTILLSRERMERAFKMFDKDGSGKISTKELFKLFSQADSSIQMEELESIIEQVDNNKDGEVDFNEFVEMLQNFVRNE

[5] = Table 8, read-out: IC50 (μM) CpCDPK1

Structure (SMILES) | solubility ([1]; buffer) | EC50 (PfCDPK1) | EC50 (PfCDPK4) | also measured
Nc1ncnc2c1c(-c1ccc3ccccc3c1)nn2CC1CCNCC1 [Compound 147, 3-(naphthalen-2-yl)-1-(piperidin-4-ylmethyl)-1H-pyrazolo[3,4-d]pyrimidin-4-amine] | 79 µM (≈ 28.3 µg/mL) | 66.8 nM | 17.2 nM | Cell Toxicity CRL8155, % at 30 μM [2]: <30% at 30 μM; Cell Toxicity HL60, % at 10 μM [3]: 33% at 10 μM; Cell Toxicity HL60, % at 30 μM [3]: 60% at 30 μM;
CC(C)COc1ccc2cc(-c3nn(CC4CCN(C)CC4)c4ncnc(N)c34)ccc2c1 [Compound 124] | 41 µM (≈ 18.2 µg/mL) | 119 nM | 101 nM | AUC [4]: 6.65 µM·h; Cmax [4]: 1840 nM; Tmax [4]: 3 h
Cn1ncc2cc(-c3nn(CC4CCNCC4)c4ncnc(N)c34)ccc21 [Compound 121] | 43 µM (≈ 15.6 µg/mL) | 702 nM | 146 nM | Cell Toxicity CRL8155, % at 10 μM [2]: <30% at 10 μM; AUC [4]: 0.445 µM·h; Cmax [4]: 190 nM; Tmax [4]: 1.5 h; Cell Toxicity HL60, % at 10 μM [3]: <30% at 10 μM
COc1ccc2cc(-c3nc(C(C)(C)C)n4ccnc(N)c34)ccc2c1 [Compound 71, 3-tert-butyl-1-(6-methoxynaphthalen-2-yl)imidazo[1,5-a]pyrazin-8-amine] | 9 µM (≈ 3.12 µg/mL) | 67.6 nM | 65.2 nM | Cell Toxicity CRL8155, % at 10 μM [2]: <30% at 10 μM; Cell Toxicity HL60, % at 10 μM [3]: <30% at 10 μM
CCOc1ccc2cc(-c3nn(C4CCN(CC)CC4)c4ncnc(N)c34)ccc2c1 [Compound 149] | 75 µM (≈ 31.2 µg/mL) |  | 81.6 nM | Cell Toxicity CRL8155, % at 10 μM [2]: <30% at 10 μM; Cell Toxicity CRL8155, % at 30 μM [2]: <30% at 30 μM; Cell Toxicity HL60, % at 30 μM [3]: <30% at 30 μM
Cc1cccc(-c2nn(C(C)(C)C)c3ncnc(N)c23)c1 [Compound 134] | 19.3 µM (≈ 5.43 µg/mL) |  |  | 
CC(C)(C)n1nc(-c2ccc3ncccc3c2)c2c(N)ncnc21 [Compound 143] | 17 µM (≈ 5.41 µg/mL) |  |  | 
CC(C)n1nc(-c2ccc(Cl)cc2)c2c(N)ncnc21 [Compound 7a, 3-(4-chlorophenyl)-1-isopropyl-1H-pyrazolo[3,4-d]pyrimidin-4-amine] | 45 µM (≈ 12.9 µg/mL) |  |  | IC50 (TgCDPK1): 0.018 µM; IC50 (CpCDPK1; [5]): 0.216 µM; IC50 (CpCDPK1; read-out: CpCDPK1 IC50): 0.22 µM
Nc1ncnc2c1c(-c1ccc3ncccc3c1)nn2CC1CCNCC1 [Compound 125] | 54 µM (≈ 19.4 µg/mL) | 1090 nM | 113 nM | 
CCOc1ccc2cc(-c3nn(C4CCNCC4)c4ncnc(N)c34)ccc2c1 [Compound 138] | 51 µM (≈ 19.8 µg/mL) |  |  | 
CC(C)(C)n1nc(-c2ccc(Cl)cc2)c2c(N)ncnc21 [Compound 146] |  |  |  | solubility [1]: 9 µM (≈ 2.72 µg/mL)
COc1ccc2cc(-c3nn(C(C)(C)C)c4ncnc(N)c34)ccc2c1 [Compound 135] | 3 µM (≈ 1.04 µg/mL) | 668 nM | 137 nM | 
CC(C)(C)c1nc(-c2ccc3ccccc3c2)c2c(N)nccn12 [Compound 84] | 26 µM (≈ 8.23 µg/mL) | 61.3 nM | 55.1 nM | Cell Toxicity CRL8155, % at 10 μM [2]: <30% at 10 μM; Cell Toxicity CRL8155, % at 30 μM [2]: 48% at 30 μM; Cell Toxicity HL60, % at 10 μM [3]: <30% at 10 μM; Cell Toxicity HL60, % at 30 μM [3]: 50% at 30 μM
Cn1ccc2cc(-c3nc(C(C)(C)C)n4ccnc(N)c34)ccc21 [Compound 70, 3-tert-butyl-1-(1-methyl-1H-indol-5-yl)imidazo[1,5-a]pyrazin-8-amine] | 5 µM (≈ 1.6 µg/mL) | 53.8 nM | 83.4 nM | Cell Toxicity CRL8155, % at 10 μM [2]: <30% at 10 μM; Cell Toxicity HL60, % at 10 μM [3]: 40% at 10 μM
COc1ccc(-c2nn(C(C)(C)C)c3ncnc(N)c23)cc1C [Compound 132] | 3.8 µM (≈ 1.18 µg/mL) | > 3000 nM | 1490 nM | 
COc1ccc(-c2nn(CC3CCNCC3)c3ncnc(N)c23)cc1C [Compound 144] | 60 µM (≈ 21.1 µg/mL) |  |  | 
Nc1ncnc2c1c(-c1ccc3cc(O)ccc3c1)nn2CC1CCNCC1 [Compound 119] | 50 µM (≈ 18.7 µg/mL) | 76.9 nM | 7.3 nM | Cell Toxicity CRL8155, % at 10 μM [2]: <30% at 10 μM; Cell Toxicity CRL8155, % at 30 μM [2]: <30% at 30 μM; Cell Toxicity HL60, % at 10 μM [3]: <30% at 10 μM;; Cell Toxicity HL60, % at 30 μM [3]: <30% at 30 μM
Cn1ccc2cc(-c3nn(C(C)(C)C)c4ncnc(N)c34)ccc21 [Compound 139] | 0.69 µM (≈ 0.221 µg/mL) | 1150 nM | 566 nM | 
Cn1ncc2cc(-c3nn(C(C)(C)C)c4ncnc(N)c34)ccc21 [Compound 142] | 5.2 µM (≈ 1.67 µg/mL) | 294 nM | 94.7 nM | 
Cc1cc(-c2nn(CC3CCNCC3)c3ncnc(N)c23)ccc1-c1ccccc1 [Compound 118] | 40 µM (≈ 15.9 µg/mL) | 511 nM | 512 nM | 
CCOc1ccc2cc(-c3nn(C4CCN(C)CC4)c4ncnc(N)c34)ccc2c1 [Compound 148] | 56 µM (≈ 22.5 µg/mL) |  | 39 nM | Cell Toxicity CRL8155, % at 30 μM [2]: <30% at 30 μM; Cell Toxicity HL60, % at 10 μM [3]: <30% at 10 μM; Cell Toxicity HL60, % at 30 μM [3]: 49% at 30 μM;
Cc1cccc2[nH]c(-c3nc(C(C)(C)C)n4ccnc(N)c34)cc12 [Compound 83] | 36 µM (≈ 11.5 µg/mL) | 1080 nM | 371 nM | Cell Toxicity CRL8155, % at 10 μM [2]: <30% at 10 μM; Cell Toxicity CRL8155, % at 30 μM [2]: 46% at 30 μM; Cell Toxicity HL60, % at 10 μM [3]: 37% at 10 μM; Cell Toxicity HL60, % at 30 μM [3]: 38% at 30 μM
COc1ccc2[nH]c(-c3nn(C(C)C)c4ncnc(N)c34)cc2c1 [Compound 27, 1-isopropyl-3-(5-methoxy-1H-indol-2-yl)-1H-pyrazolo[3,4-d]pyrimidin-4-amine] |  | 879 nM | > 3000 nM | IC50 (TgCDPK1): 0.0569 µM; IC50 (CpCDPK1; [5]): 0.623 µM
CCOc1ccc2cc(-c3nn(C(C)(C)C)c4ncnc(N)c34)ccc2c1 [Compound 137] | 1 µM (≈ 0.361 µg/mL) | 2430 nM | 942 nM | 
CCC(=O)Nc1ccc(-c2nn(C(C)(C)C)c3ncnc(N)c23)cc1 [Compound 67, N-(4-(4-amino-1-tert-butyl-1H-pyrazolo[3,4-d]pyrimidin-3-yl)phenyl)propionamide] |  | 325 nM | 1990 nM | IC50 (TgCDPK1): 0.196 µM; IC50 (CpCDPK1; [5]): 0.822 µM
Nc1ncnc2c1c(-c1ccc(Cl)cc1)nn2CC1CCNCC1 [Compound 45, 3-(4-chlorophenyl)-1-(piperidin-4-ylmethyl)-1H-pyrazolo[3,4-d]pyrimidin-4-amine] | 62 µM (≈ 21.3 µg/mL) | 56.5 nM | 350 nM | 
CCOc1ccc2cc(-c3nc(C(C)C)n4ccnc(N)c34)ccc2c1 [Compound 10, 1-(6-ethoxynaphthalen-2-yl)-3-isopropylimidazo[1,5-a]pyrazin-8-amine] | 29 µM (≈ 10 µg/mL) | 380 nM | 328 nM | AUC [4]: 112 µM·h; Cmax [4]: 26000 nM; Tmax [4]: 2.5 h; IC50 (TgCDPK1): 0.078 µM; IC50 (CpCDPK1; [5]): 0.0336 µM
CC(C)(C)n1nc(-c2ccc(NC(=O)Cc3ccccc3)cc2)c2c(N)ncnc21 [Compound 66, N-(4-(4-amino-1-tert-butyl-1H-pyrazolo[3,4-d]pyrimidin-3-yl)phenyl)-2-phenylacetamide] |  | 287 nM | 2180 nM | IC50 (TgCDPK1): 0.178 µM; IC50 (CpCDPK1; [5]): 2.02 µM
CCCC(=O)Nc1ccc(-c2nn(C(C)(C)C)c3ncnc(N)c23)cc1 [Compound 61, N-(4-(4-amino-1-tert-butyl-1H-pyrazolo[3,4-d]pyrimidin-3-yl)phenyl)butyramide] |  | 71.4 nM | 515 nM | IC50 (TgCDPK1): 0.0684 µM; IC50 (CpCDPK1; [5]): 0.927 µM
CC(C)(C)n1nc(-c2ccc(NC(=O)C3CCCC3)cc2)c2c(N)ncnc21 [Compound 63, N-(4-(4-amino-1-tert-butyl-1H-pyrazolo[3,4-d]pyrimidin-3-yl)phenyl)cyclopentanecarboxamide] |  | 11.8 nM | 136 nM | IC50 (TgCDPK1): 0.0462 µM; IC50 (CpCDPK1; [5]): 0.417 µM
